From patent US20020137929A1, “1 - (3-heterocyclylphenyl) isothiourea, -isourea, -guanidine and -amidine herbicidal agents” (Intellectual Property Department, BASF Aktiengesellschaft, priority 1998, published 2002)

Assays:
ABUTH (Velvetleaf) = assay: Postemergence herbicidal evaluation; format: in vivo, Abutilon theophrasti
In short: (§1)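 Visual 0–9 rating versus control (stand, vigor, malformation, size, chlorosis, overall appearance), taken four to five weeks post-spray. Two-week-old seedlings received roughly 0.0156–0.500 kg/ha active in acetone/water (50/50) with 0.5% TWEEN 20 via nozzle at 40 psi.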

[1] = test system: IPOHE (Morningglory, Ivyleaf); assay: Postemergence herbicidal evaluation; format: in vivo, Ipomoea hederacea
In short: as §1

[2] = test system: TRZAWR (Wheat, Winter, cv Riband); assay: Postemergence herbicidal evaluation; format: in vivo, Triticum aestivum
In short: as §1

[3] = test system: CHEAL (Lambsquarters, Common); assay: Preemergence herbicidal evaluation; format: in vivo, Chenopodium album; details: rated 4-5 weeks after treatment
In short: (§2)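 Test compound, dissolved in aqueous acetone, was sprayed over planted soil cups at an equivalent of about 0.0156 to 0.500 kg/ha; seeds had been mixed with potting soil. Greenhouse growth followed, with visual 0-9 scoring of injury at four to five weeks.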

[4] = test system: IPOHE (Morningglory, Ivyleaf); assay: Preemergence herbicidal evaluation; format: in vivo, Ipomoea hederacea; details: rated 4-5 weeks after treatment
In short: as §2

ECHCG (Barnyardgrass) = assay: Preemergence herbicidal evaluation; format: in vivo, Echinochloa crus-galli; details: rated 4-5 weeks after treatment
In short: as §2

SETVI (Foxtail, Green) = assay: Preemergence herbicidal evaluation; format: in vivo, Setaria viridis; details: rated 4-5 weeks after treatment
In short: as §2

ORYSAT (Rice, Tebonnet) = assay: Preemergence herbicidal evaluation; format: in vivo, Oryza sativa, (L.) Tebonnet; details: rated 4-5 weeks after treatment
In short: as §2

[5] = test system: TRZAWR (Wheat, Winter, cv Riband); assay: Preemergence herbicidal evaluation; format: in vivo, Triticum aestivum; details: rated 4-5 weeks after treatment
In short: as §2

[6] = test system: ECHORC (Watergrass (Calif.)); assay: Preemergence weed control under flooded paddy conditions; format: in vivo, Echinochloa oryzoides; details: rated 3-4 weeks after treatment
In short: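 Visual injury scored 0-9 against control three to four weeks post-treatment, greenhouse-grown. Application: acetone/water (50/50) solutions dosed directly into flood water (1.5-3 cm over silt loam, planted top 0.5 cm), roughly 0.0313 to 0.500 kg/ha active ingredient.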

MOOVA (Monochoria) = assay: as above; format: in vivo, Monochoria vaginalis; details: rated 3-4 weeks after treatment
In short: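 Flooded-pot preemergence screen with silt loam and seeds in the upper 0.5 cm. Dose about 0.0313 to 0.500 kg/ha, delivered into flood water; visual 0-9 score after 3 to 4 weeks.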

[7] = test system: ECHORC (Watergrass (Calif.)); assay: Postemergence weed control under flooded paddy conditions; format: in vivo, Echinochloa oryzoides; details: postemergence weeds, 3-4 weeks after treatment
In short: (§3)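 Injury ratings (0–9 scale covering stand, vigor, malformation, size, chlorosis and overall appearance versus control) were made three to four weeks after treatment. Test material, about 0.0313 to 0.500 kg/ha a.i. in 50/50 v/v aqueous/acetone, was added to flood water 1.5 to 3 cm deep over 3 to 5 cm weeds and 1.5 to 2.5 leaf rice.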

CYPIR (Rice Flatsedge) = assay: as above; format: in vivo, Cyperus iria; details: postemergence weeds, 3-4 weeks after treatment
In short: as §3

With O=C(O)CC1SC(=Nc2cc(N3C(=O)C4=C(CCCC4)C3=O)c(F)cc2Cl)N(CC(=O)O)C1=O (stereo not shown) [Compound 48, 2-{[2-Chloro-5-(1-cyclohexene-1,2-dicarboximido)-4-fluorophenyl]imino}-4-oxo-3,5-thiazolidinediacetic acid] the “Postemergence herbicidal rating ABUTH” value (ABUTH (Velvetleaf); Rate 0.0156 kg/ha) was 9.0, the “Postemergence herbicidal rating ABUTH” value (ABUTH (Velvetleaf); Rate 0.0313 kg/ha) was 9.0 and the “Postemergence herbicidal rating ABUTH” value (ABUTH (Velvetleaf); Rate 0.0625 kg/ha) was 9.0. The “Postemergence herbicidal rating IPOHE” value ([1]; Rate 0.0156 kg/ha) was 9.0, the “Postemergence herbicidal rating IPOHE” value ([1]; Rate 0.0313 kg/ha) was 9.0 and the “Postemergence herbicidal rating IPOHE” value ([1]; Rate 0.0625 kg/ha) was 9.0. For the same compound, the “Postemergence herbicidal rating TRZAWR” value ([2]; Rate 0.0156 kg/ha) was 5.0, the “Postemergence herbicidal rating TRZAWR” value ([2]; Rate 0.0313 kg/ha) was 5.0 and the “Postemergence herbicidal rating TRZAWR” value ([2]; Rate 0.0625 kg/ha) was 5.0. For the same compound, the “Preemergence herbicidal rating CHEAL” value ([3]; rate 0.0156 kg/ha) was 9.0, the “Preemergence herbicidal rating CHEAL” value ([3]; rate 0.0313 kg/ha) was 9.0 and the “Preemergence herbicidal rating CHEAL” value ([3]; rate 0.0625 kg/ha) was 9.0. For the same compound, the “Preemergence herbicidal rating CHEAL” value ([3]; rate 0.1250 kg/ha) was 9.0, the “Preemergence herbicidal rating CHEAL” value ([3]; rate 0.2500 kg/ha) was 9.0 and the “Preemergence herbicidal rating IPOHE” value ([4]; rate 0.0156 kg/ha) was 0.0. For the same compound, the “Preemergence herbicidal rating IPOHE” value ([4]; rate 0.0313 kg/ha) was 0.0, the “Preemergence herbicidal rating IPOHE” value ([4]; rate 0.0625 kg/ha) was 0.0 and the “Preemergence herbicidal rating IPOHE” value ([4]; rate 0.2500 kg/ha) was 0.0. For the same compound, the “Preemergence herbicidal rating ECHCG” value (ECHCG (Barnyardgrass); rate 0.0156 kg/ha) was 0.0, the “Preemergence herbicidal rating ECHCG” value (ECHCG (Barnyardgrass); rate 0.0313 kg/ha) was 0.0 and the “Preemergence herbicidal rating ECHCG” value (ECHCG (Barnyardgrass); rate 0.0625 kg/ha) was 0.0. The “Preemergence herbicidal rating ECHCG” value (ECHCG (Barnyardgrass); rate 0.1250 kg/ha) was 0.0, the “Preemergence herbicidal rating ECHCG” value (ECHCG (Barnyardgrass); rate 0.2500 kg/ha) was 0.0 and the “Preemergence herbicidal rating SETVI” value (SETVI (Foxtail, Green); rate 0.0156 kg/ha) was 0.0. For the same compound, the “Preemergence herbicidal rating SETVI” value (SETVI (Foxtail, Green); rate 0.0313 kg/ha) was 0.0, the “Preemergence herbicidal rating SETVI” value (SETVI (Foxtail, Green); rate 0.0625 kg/ha) was 0.0 and the “Preemergence herbicidal rating SETVI” value (SETVI (Foxtail, Green); rate 0.1250 kg/ha) was 0.0. The “Preemergence herbicidal rating SETVI” value (SETVI (Foxtail, Green); rate 0.2500 kg/ha) was 0.0, the “Preemergence herbicidal rating ORYSAT” value (ORYSAT (Rice, Tebonnet); rate 0.0156 kg/ha) was 0.0 and the “Preemergence herbicidal rating ORYSAT” value (ORYSAT (Rice, Tebonnet); rate 0.0313 kg/ha) was 0.0. The “Preemergence herbicidal rating ORYSAT” value (ORYSAT (Rice, Tebonnet); rate 0.0625 kg/ha) was 0.0, the “Preemergence herbicidal rating ORYSAT” value (ORYSAT (Rice, Tebonnet); rate 0.1250 kg/ha) was 0.0 and the “Preemergence herbicidal rating ORYSAT” value (ORYSAT (Rice, Tebonnet); rate 0.2500 kg/ha) was 3.0. For the same compound, the “Preemergence herbicidal rating TRZAWR” value ([5]; rate 0.0156 kg/ha) was 0.0, the “Preemergence herbicidal rating TRZAWR” value ([5]; rate 0.0313 kg/ha) was 0.0 and the “Preemergence herbicidal rating TRZAWR” value ([5]; rate 0.0625 kg/ha) was 0.0. For the same compound, the “Preemergence herbicidal rating TRZAWR” value ([5]; rate 0.1250 kg/ha) was 0.0, the “Preemergence herbicidal rating TRZAWR” value ([5]; rate 0.2500 kg/ha) was 2.0 and the “Herbicidal rating ECHORC” value ([6]; 0.1250 kg/ha) was 3.0. The “Herbicidal rating ECHORC” value ([6]; 0.2500 kg/ha) was 6.0, the “Herbicidal rating MOOVA” value (MOOVA (Monochoria); 0.1250 kg/ha) was 3.0 and the “Herbicidal rating MOOVA” value (MOOVA (Monochoria); 0.2500 kg/ha) was 6.0. The “Herbicidal rating ECHORC” value ([7]; rate 0.1250 kg/ha) was 3.0, the “Herbicidal rating ECHORC” value ([7]; rate 0.2500 kg/ha) was 6.0 and the “Herbicidal rating CYPIR” value (CYPIR (Rice Flatsedge); rate 0.1250 kg/ha) was 2.0. The “Herbicidal rating CYPIR” value (CYPIR (Rice Flatsedge); rate 0.2500 kg/ha) was 5.0.
With COC(=O)CCN1C(=O)CSC1=Nc1cc(-n2c(=O)cc(C(F)(F)F)n(C)c2=O)c(F)cc1Cl [Compound 28, Methyl 2-{{2-chloro-5-[3,6-dihydro-3-methyl-2,6-dioxo-4-(trifluoromethyl)-1(2H)-pyrimidinyl]-4-fluorophenyl}imino}-4-oxo-3-thiazolidinepropionate] the “Postemergence herbicidal rating ABUTH” value (ABUTH (Velvetleaf); Rate 0.0158 kg/ha) was 9.0, the “Postemergence herbicidal rating ABUTH” value (ABUTH (Velvetleaf); Rate 0.0315 kg/ha) was 9.0 and the “Postemergence herbicidal rating ABUTH” value (ABUTH (Velvetleaf); Rate 0.0630 kg/ha) was 9.0. The “Postemergence herbicidal rating IPOHE” value ([1]; Rate 0.0158 kg/ha) was 9.0, the “Postemergence herbicidal rating IPOHE” value ([1]; Rate 0.0315 kg/ha) was 9.0 and the “Postemergence herbicidal rating IPOHE” value ([1]; Rate 0.0630 kg/ha) was 9.0. For the same compound, the “Postemergence herbicidal rating TRZAWR” value ([2]; Rate 0.0158 kg/ha) was 5.0, the “Postemergence herbicidal rating TRZAWR” value ([2]; Rate 0.0315 kg/ha) was 5.0 and the “Postemergence herbicidal rating TRZAWR” value ([2]; Rate 0.0630 kg/ha) was 6.5. The “Preemergence herbicidal rating CHEAL” value ([3]; rate 0.0625 kg/ha) was 0.0, the “Preemergence herbicidal rating CHEAL” value ([3]; rate 0.1250 kg/ha) was 9.0 and the “Preemergence herbicidal rating CHEAL” value ([3]; rate 0.2500 kg/ha) was 9.0. The “Preemergence herbicidal rating IPOHE” value ([4]; rate 0.0625 kg/ha) was 0.0, the “Preemergence herbicidal rating IPOHE” value ([4]; rate 0.1250 kg/ha) was 2.0 and the “Preemergence herbicidal rating IPOHE” value ([4]; rate 0.2500 kg/ha) was 9.0. For the same compound, the “Preemergence herbicidal rating ECHCG” value (ECHCG (Barnyardgrass); rate 0.0625 kg/ha) was 0.0, the “Preemergence herbicidal rating ECHCG” value (ECHCG (Barnyardgrass); rate 0.1250 kg/ha) was 9.0 and the “Preemergence herbicidal rating ECHCG” value (ECHCG (Barnyardgrass); rate 0.2500 kg/ha) was 9.0. The “Preemergence herbicidal rating SETVI” value (SETVI (Foxtail, Green); rate 0.0625 kg/ha) was 7.0, the “Preemergence herbicidal rating SETVI” value (SETVI (Foxtail, Green); rate 0.1250 kg/ha) was 9.0 and the “Preemergence herbicidal rating SETVI” value (SETVI (Foxtail, Green); rate 0.2500 kg/ha) was 9.0. The “Preemergence herbicidal rating ORYSAT” value (ORYSAT (Rice, Tebonnet); rate 0.0625 kg/ha) was 0.0, the “Preemergence herbicidal rating ORYSAT” value (ORYSAT (Rice, Tebonnet); rate 0.1250 kg/ha) was 2.0 and the “Preemergence herbicidal rating ORYSAT” value (ORYSAT (Rice, Tebonnet); rate 0.2500 kg/ha) was 8.0. For the same compound, the “Preemergence herbicidal rating TRZAWR” value ([5]; rate 0.0625 kg/ha) was 0.0, the “Preemergence herbicidal rating TRZAWR” value ([5]; rate 0.2500 kg/ha) was 8.0 and the “Herbicidal rating ECHORC” value ([6]; 0.0313 kg/ha) was 0.0. For the same compound, the “Herbicidal rating ECHORC” value ([6]; 0.0625 kg/ha) was 4.0, the “Herbicidal rating ECHORC” value ([6]; 0.1250 kg/ha) was 7.0 and the “Herbicidal rating ECHORC” value ([6]; 0.2500 kg/ha) was 9.0. For the same compound, the “Herbicidal rating MOOVA” value (MOOVA (Monochoria); 0.0313 kg/ha) was 9.0, the “Herbicidal rating MOOVA” value (MOOVA (Monochoria); 0.0625 kg/ha) was 9.0 and the “Herbicidal rating MOOVA” value (MOOVA (Monochoria); 0.1250 kg/ha) was 9.0. The “Herbicidal rating MOOVA” value (MOOVA (Monochoria); 0.2500 kg/ha) was 9.0, the “Herbicidal rating ECHORC” value ([7]; rate 0.0313 kg/ha) was 0.0 and the “Herbicidal rating ECHORC” value ([7]; rate 0.0625 kg/ha) was 4.0. For the same compound, the “Herbicidal rating ECHORC” value ([7]; rate 0.1250 kg/ha) was 7.0, the “Herbicidal rating ECHORC” value ([7]; rate 0.2500 kg/ha) was 9.0 and the “Herbicidal rating CYPIR” value (CYPIR (Rice Flatsedge); rate 0.0313 kg/ha) was 9.0. For the same compound, the “Herbicidal rating CYPIR” value (CYPIR (Rice Flatsedge); rate 0.0625 kg/ha) was 9.0, the “Herbicidal rating CYPIR” value (CYPIR (Rice Flatsedge); rate 0.1250 kg/ha) was 9.0 and the “Herbicidal rating CYPIR” value (CYPIR (Rice Flatsedge); rate 0.2500 kg/ha) was 9.0.
